Experimental data: paper PMC6627698, “Redesigning Arenicin-1, an Antimicrobial Peptide from the Marine Polychaeta Arenicola marina, by Strand Rearrangement or Branching, Substitution of Specific Residues, and Backbone Linearization or Cyclization” (Marine Drugs, 2019)
Residues, ends and D or L forms follow the SMILES beside them.

Experiments:
E. coli ATCC 25922 = format: cell-based, Escherichia coli; conditions: ATCC 25922, 18 h
Description: (§1) E. coli ML35p, Listeria monocytogenes EGD, methicillin-resistant Staphylococcus aureus (MRSA) ATCC 33591 were kindly provided by Prof. Robert Lehrer (University of California, Los Angeles, CA, USA); E. coli ATCC 25922, E. coli M15, Pseudomonas aeruginosa ATCC 27853, S. aureus ATCC 25923 were provided by Dr. Elena Ermolenko (Institute of Experimental Medicine, St-Petersburg, Russia); drug-resistant clinical isolates were provided by Prof. Gennadiy Afinogenov (Saint Petersburg State University, Russia); S. aureus 710A has been described previously. The following clinical isolates of bacteria were used: P.s aeruginosa resistant to aztreonam, ceftazidime, cefotaxime (obtained from the urine of a patient with cystitis), Acinetobacter baumannii resistant to meropenem (from an infected wound); Staphylococcus intermedius (from an infected wound caused by a dog bite) resistant to ciprofloxacin, cefuroxime, clindamycin, erythromycin, rifampin, gentamicin, benzylpenicillin, oxacillin.
(§2) This assay was applied to determine the MIC, according to the guidelines of the Clinical and Laboratory Standards Institute, using Mueller Hinton (MH) Broth. We prepared 2x stocks of peptides and serially diluted them in sterile PBS instead of Mueller Hinton Broth, so that the treatment of the bacteria with the peptides was carried out in a medium containing 50% of MH and 50% of PBS, as described. The overnight cultures of each strain were transferred to fresh MH media and further incubated to obtain a mid-logarithmic-growth-phase culture of bacteria. The absorbance of each bacterial suspension was measured at 620 nm, and bacteria were then diluted to approximately 2 × 10^5 CFU/mL. Then, 50 µL of the suspensions were mixed with 50 µL of the peptide dilutions in the wells of a microtiter plate (pre-treated for 1 h at 37 °C with 0.2% bovine serum albumin (BSA) in water, sterilized by filtration, to diminish the non-specific binding of the peptides to the plastic surfaces).

E. coli M15 = format: cell-based, Escherichia coli; conditions: M15, 18 h
Description: as §1, §2

Escherichia coli ML35p = format: cell-based; conditions: broth microdilution, 50% Mueller Hinton broth / 50% PBS, 18 h at 37 °C, median of 3–5 experiments in triplicates
Description: as §1, §2

[1] = test system: Listeria monocytogenes EGD; format: cell-based; conditions: 18 h
Description: as §1, §2

[2] = test system: Pseudomonas aeruginosa ATCC 27853; format: cell-based; conditions: ATCC 27853, 18 h
Description: as §1, §2

[3] = test system: Staphylococcus aureus 710A; format: cell-based; conditions: 18 h
Description: as §1, §2

MRSA ATCC 33591 = format: cell-based, Staphylococcus aureus; conditions: ATCC 33591, 18 h
Description: as §1, §2

S. aureus ATCC 25923 = format: cell-based, Staphylococcus aureus; conditions: ATCC 25923, 18 h
Description: as §1, §2

S. aureus c.i. = format: cell-based, Staphylococcus aureus; conditions: 18 h
Description: as §1, §2

P. aeruginosa c.i. = format: cell-based, Pseudomonas aeruginosa; conditions: 18 h
Description: as §1, §2

[4] = test system: Acinetobacter baumanii c.i.; format: cell-based, Acinetobacter baumannii; conditions: 18 h
Description: as §1, §2

[5] = test system: Staphylococcus intermidius; format: cell-based, Staphylococcus intermedius; conditions: 18 h
Description: as §1, §2

[6] = test system: set of Gram-negative and Gram-positive bacteria, including drug-resistant clinical isolates; format: cell-based; conditions: 12 strains; median MICs used; MIC > 16 µM taken as 32 µM
Experimental: To obtain a global assessment of the effect on antimicrobial activity, the geometric mean of the MIC (G-MIC) was calculated, and from this, the overall improvement or impoverishment with respect to arenicin-1. In general, inverting the symmetry or decreasing the charge had detrimental effects.
The overall activity against a set of tested bacterial strains was determined by way of the commonly used geometric mean of measured MIC values. […] At the same time, the geometric mean can still discriminate antimicrobial agents showing minor variations in activity; in other words, it has a better “resolution” than the median MIC (MIC50). Some mathematical basics for choosing the geometric mean for antimicrobial activity comparison are further discussed in the Supplementary Chapter S3.

[7] = test system: human erythroleukemia K-562 cells; format: cell-based; conditions: 24 h
Experimental: The standard MTT ((3-(4,5-Dimethylthiazol-2-yl)-2,5-diphenyltetrazolium bromide) test was used for the examination of the cytotoxic activity of AMPs towards human erithroleukemia cells K-562. The cells were purchased from Biolot (Saint Petersburg, Russia) and were grown in RPMI 1640 medium (Biolot, Saint Petersburg, Russia) supplemented with glutamine and 10% FCS. Before the experiment, the culturing medium was replaced with serum-free RPMI 1640. Serial dilutions of the peptides in RPMI were plated in sterile 96-well microplates, and the target cells were dispensed to the microplates (10^5 cells/well in RPMI 1640). The plates were incubated for 24 h at 37 °C under 5% CO2. Cell-free media and cells incubated without peptides served as controls. Four hours before the incubation ended, MTT in PBS (5 mg/mL) was added to each well. After the incubation was stopped by adding isopropanol/ 0.04 M HCl, the optical density was measured at 540 nm, subtracting the background absorbance at 690 nm. Toxicity was determined by nonlinear regression analysis of the corresponding dose–response curves using the Sigma Plot 11 program to calculate the IC50 values (the concentration of the test substance that reduced the OD540 capacity by 50%).

SMILES	Minimal Inhibitory Concentrations (MIC) (E. coli ATCC 25922) [µM]	Minimal Inhibitory Concentrations (MIC) (E. coli M15) [µM]	Minimal Inhibitory Concentrations (MIC) (Escherichia coli ML35p) [µM]	Minimal Inhibitory Concentrations (MIC) [1] [µM]	Minimal Inhibitory Concentrations (MIC) [2] [µM]	Minimal Inhibitory Concentrations (MIC) [3] [µM]	Minimal Inhibitory Concentrations (MIC) (MRSA ATCC 33591) [µM]	Minimal Inhibitory Concentrations (MIC) (S. aureus ATCC 25923) [µM]	Minimal Inhibitory Concentrations (MIC) (S. aureus c.i.) [µM]	Minimal Inhibitory Concentrations (MIC) (P. aeruginosa c.i.) [µM]	Minimal Inhibitory Concentrations (MIC) [4] [µM]	Minimal Inhibitory Concentrations (MIC) [5] [µM]	G-MIC (geometric mean of all determined MICs) [6] [µM]	IC50 [7] [µM]
CC(C)[C@@H]1NC(=O)CNC(=O)[C@H](CCCNC(=N)N)NC(=O)[C@H](C(C)C)NC(=O)[C@H](CCCNC(=N)N)NC(=O)[C@H](C(C)C)NC(=O)[C@H](Cc2ccc(O)cc2)NC(=O)[C@H](C)NC(=O)[C@H](Cc2ccc(O)cc2)NC(=O)[C@H](C(C)C)NC(=O)[C@@H](NC(=O)[C@H](Cc2c[nH]c3ccccc23)NC(=O)[C@H](CCCNC(=N)N)NC(=O)[C@@H](N)CCCNC(=N)N)CSSC[C@@H](C(=O)N[C@@H](Cc2c[nH]c3ccccc23)C(=O)O)NC(=O)[C@H](C(C)C)NC(=O)[C@H](Cc2ccc(O)cc2)NC(=O)[C@H](C)NC(=O)[C@H](Cc2ccc(O)cc2)NC(=O)[C@H](C(C)C)NC(=O)[C@H](CCCNC(=N)N)NC1=O [ARs-N] (HELM PEPTIDE1{R.R.W.C.V.Y.A.Y.V.R.V.R.G.V.R.V.Y.A.Y.V.C.W}$PEPTIDE1,PEPTIDE1,4:R3-21:R3$$$V2.0; N-terminus assumed)	>16	>16	16	8	>16	>16	>16	>16	>16	>16	>16	>16	≥26.9	18
CC(C)[C@@H]1NC(=O)[C@H](CCCNC(=N)N)NC(=O)[C@H](C(C)C)NC(=O)[C@H](Cc2ccc(O)cc2)NC(=O)[C@H](C)NC(=O)[C@H](Cc2ccc(O)cc2)NC(=O)[C@H](C(C)C)NC(=O)[C@@H](NC(=O)[C@H](Cc2c[nH]c3ccccc23)NC(=O)[C@@H](N)CCCNC(=N)N)CSSC[C@H](NC(=O)[C@H](Cc2c[nH]c3ccccc23)NC(=O)[C@@H](N)CCCNC(=N)N)C(=O)N[C@@H](C(C)C)C(=O)N[C@@H](Cc2ccc(O)cc2)C(=O)N[C@@H](C)C(=O)N[C@@H](Cc2ccc(O)cc2)C(=O)N[C@@H](C(C)C)C(=O)N[C@@H](CCCNC(=N)N)C(=O)N[C@@H](C(C)C)C(=O)N[C@H](C(=O)N[C@@H](CN)C(N)=O)CCCNC1=O [ARs-N-B] (HELM PEPTIDE1{R.W.C.V.Y.A.Y.V.R.V.[Orn].[NC[C@H](N[*:1])C(=O)[*:2]].[am]}|PEPTIDE2{R.W.C.V.Y.A.Y.V.R.V}$PEPTIDE1,PEPTIDE2,3:R3-3:R3|PEPTIDE1,PEPTIDE2,11:R3-10:R2$$$V2.0)	8	4	4	2 to 4	2	8	8	8	8	16	4	8	5.9	35.1
CC(C)C[C@@H]1NC(=O)[C@H](C(C)C)NC(=O)CNC(=O)[C@H](CCCNC(=N)N)NC(=O)[C@H](C(C)C)NC(=O)[C@H](CCCNC(=N)N)NC(=O)[C@H](C(C)C)NC(=O)[C@H](Cc2ccc(O)cc2)NC(=O)[C@H](C)NC(=O)[C@H](Cc2ccc(O)cc2)NC(=O)[C@H](C(C)C)NC(=O)[C@@H](NC(=O)[C@H](Cc2c[nH]c3ccccc23)NC(=O)[C@@H](N)CCCNC(=N)N)CSSC[C@@H](C(=O)N[C@@H](Cc2c[nH]c3ccccc23)C(=O)O)NC(=O)[C@H](CCCNC(=N)N)NC(=O)[C@H](CCCNC(=N)N)NC(=O)[C@H](Cc2ccc(O)cc2)NC(=O)[C@H](CCCNC(=N)N)NC(=O)[C@H](C(C)C)NC1=O [AR, Arenicin-1] (HELM PEPTIDE1{R.W.C.V.Y.A.Y.V.R.V.R.G.V.L.V.R.Y.R.R.C.W}$PEPTIDE1,PEPTIDE1,3:R3-20:R3$$$V2.0)	2	2	1 to 2	1 to 2	2	2	4	2	4	4	4	8	2.7	17.9
CC(C)C[C@@H]1NC(=O)[C@H](C(C)C)NC(=O)CNC(=O)[C@H](CCCNC(=N)N)NC(=O)[C@H](C(C)C)NC(=O)[C@H](CCCNC(=N)N)NC(=O)[C@H](C(C)C)NC(=O)[C@H](Cc2ccc(O)cc2)NC(=O)[C@H](C)NC(=O)[C@H](Cc2ccc(O)cc2)NC(=O)[C@H](C(C)C)NC(=O)[C@@H](NC(=O)[C@H](Cc2ccccc2)NC(=O)[C@@H](N)CCCNC(=N)N)CSSC[C@@H](C(=O)N[C@@H](Cc2ccccc2)C(=O)O)NC(=O)[C@H](CCCNC(=N)N)NC(=O)[C@H](CCCNC(=N)N)NC(=O)[C@H](Cc2ccc(O)cc2)NC(=O)[C@H](CCCNC(=N)N)NC(=O)[C@H](C(C)C)NC1=O [AR-F] (HELM PEPTIDE1{R.F.C.V.Y.A.Y.V.R.V.R.G.V.L.V.R.Y.R.R.C.F}$PEPTIDE1,PEPTIDE1,3:R3-20:R3$$$V2.0; N-terminus and C-terminus assumed)	1	1	1	2	1	2	2	2	4	2	2	4	1.8	9.3
